Consider 2 compounds from patent publication US4534978A, “Perfluorocycloamines” (The Green Cross Corporation, priority 1984, dated 1985).

The nature of data set [1]: Distribution of Perfluoro-compound in Organs. Particulars: 4 g/kg into the tail vein, male rats. It is filed as in vivo, Wister-strain male rats. From the text:
The content of perfluoro-N-cyclohexylpyrrolidine uptake in each organ 1, 2 and 4 weeks and 3 months after the administration are shown in Table 5.

Another data set is described as follows: Acute Toxicity Test. Format: in vivo, Wister-strain male rats. Particulars: emulsion i.v., 100 ml/kg-body weight, observed one week, male rats. The method, then:
The acute toxicity test on the preparations of the present invention was carried out using the preparations of the present invention shown in Table 4 which had been physiologically isotonized. The test animals used were Wister-strain male rats (weighing 100-120 g).
The results are such that with either emulsion containing perfluoro-N-cyclohexylprrolidine or perfluoro-N-(3'-methylcyclohexyl)pyrrolidine, thre was no death case at 100 ml/kg-body weight and thus their toxicity are very small.

As to `FC1(F)N(C2(F)C(F)(F)C(F)(F)C(F)(F)C(F)(F)C2(F)F)C(F)(F)C(F)(F)C1(F)F` [Example 1, perfluoro-N-cyclohexylpyrrolidine], the “adverse influence on the liver or spleen organ” value in data set [1] is “no evidence of adverse influence on the liver or spleen organ”. Besides, in data set [1], the “uptake by the reticulo-endothelial organs and disappearance” value is listed as “taken up in greater amounts by the reticulo-endothelial organs shortly after the administration, but soon disappeared rapidly”. For the same compound, the “Residual Rate of perfluoro-compound” value was found to be 21.23% in data set [1] (Liver, 1 week after administration); 13.63% in data set [1] (Liver, 2 weeks after administration); 0.24% in data set [1] (Liver, 3 months after administration); 4.98% in data set [1] (Liver, 4 weeks after administration); 12.33% in data set [1] (Spleen, 1 week after administration); 10.49% in data set [1] (Spleen, 2 weeks after administration). For the same compound, the “Residual Rate of perfluoro-compound” value in data set [1] (Spleen, 3 months after administration) is 0.51%; in data set [1] (Spleen, 4 weeks after administration), 8.52%. For the same compound, in data set [1] (rat, in vivo, iv, 4000 mg/kg, calculated), the half-life (as a rule, the time in which the quantity being followed falls by half) was 16 days. Also, the death cases result in “Acute Toxicity Test” was “no death case”. The toxicity entry in “Acute Toxicity Test” is recorded as “very small”.
For `FC(F)(F)C1(F)C(F)(F)C(F)(F)C(F)(F)C(F)(N2C(F)(F)C(F)(F)C(F)(F)C2(F)F)C1(F)F` (stereo not drawn) [Example 38, perfluoro-N-(3'-methylcyclohexyl)pyrrolidine], in “Acute Toxicity Test”, the death cases result is “no death case” and the toxicity result is reported as “very small”.
